Assays:
[1] = biological target: T1, catalytic domain of human PARP14 (Homo sapiens, UniProt Q460N5); test: Enzymatic assay for inhibition of PARP14 (DELFIA, auto-modification with biotin-NAD); type: biochemical; settings: compounds corresponding to group Q
T1 construct: made in house; host or cells: Escherichia coli
T1 sequence (Q460N5 1611-1801): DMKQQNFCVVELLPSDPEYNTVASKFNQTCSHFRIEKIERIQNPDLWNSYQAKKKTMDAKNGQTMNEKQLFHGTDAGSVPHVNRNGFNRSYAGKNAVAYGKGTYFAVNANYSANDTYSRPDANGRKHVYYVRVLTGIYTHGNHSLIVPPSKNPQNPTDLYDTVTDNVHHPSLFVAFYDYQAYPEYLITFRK
Procedure: The catalytic domain of human PARP14 (residues 1611 to 1801, GenBank Accession No. NM_017554) was overexpressed in Escherichia coli cells. An N-teininal His-TEV fusion tag was used to purify the protein from cell lysates. The His-TEV tag was left on the protein for use in the enzymatic assay.
Enzymatic inhibition of PARP14 was measured using a dissociation-enhanced lanthanide fluorescence immunoassay (DELFIA) monitoring the auto-modification of PARP14 by biotinylated nicotinamide adenine dinucleotide (biotin-NAD), 1 μL of a dose response curve of each test compound was spotted in 384-well nickel-coated white microplates (Therno) using a Mosquito (TTP Labtech). Reactions were performed in a 50 p L volume by adding 40 μL of PARP14 in assay buffer (20 mM HEPES pH=8, 100 mM NaCl, 0.1% bovine serum albumin. 2 mM DTT and 0.002% Tween20), incubating with test compound at 25° C. for 30 min, then adding 10 μL of biotin-NA D (Biolog). The final concentrations of PARP14 and biotin-NAD are 50 nM and 3 μM, respectively. Reactions proceeded at 25° C. for 3 h, then were quenched with 5 μL of 10 mM unmodified nicotinamide adenine dinucleotide (Sigma-Aldrich). The quenched reactions were washed 3 times with 100 μL of TBST wash buffer (50 mM Tris-HCl, 150 mnM NaCl and 0.1% Tween20). Next, to the washed and dried plate was added 25 μL of DELFIA Europium-NI streptavidin (Perkin Elmer) diluted in DELFIA assay buffer (Perkin Elmer). After a 30 min incubation at 25° C., the plate was washed 5 times with TBST wash buffer. Finally, 25 μL of DELFIA enhancement solution was added. After a 5 min incubation the plate was read on an Envision platereader equipped with a LANCE/DELFIA top mirror (Perkin Elmer) using excitation of 340 nm and emission of 615 nm to measure the amount of Europium present in each well, informing on the amount of biotin-NAD that was transferred in the automodification reaction. Control wells containing a negative control of 2% DMSO vehicle or a positive control of 100 μM rucaparib were used to calculate the % inhibition as described below:
where ex615cmpd is the emission from the compound treated well, ex615min, is the emission from the rucaparib treated positive control well and ex615max is the emission from the DMSO treated negative control well.
The % inhibition values were plotted as a function of compound concentration and the following 4-parameter fit was applied to derive the IC50 values:
where top and bottom are normally allowed to float, but may be fixed at 100 or 0 respectively in a 3-parameter fit. The Hill Coefficient is normally allowed to float but may also be fixed at 1 in a 3-parameter fit. Y is the % inhibition and X is the compound concentration.

[2] = biological target: T2, PARP14 (Homo sapiens, UniProt Q460N5); test: PARP14 degradation assay (Western blot) in KYSE270 cells; type: cell-based; settings: 24 h
T2 construct: endogenous in cells; host or cells: KYSE270
T2 sequence (Q460N5 whole entry): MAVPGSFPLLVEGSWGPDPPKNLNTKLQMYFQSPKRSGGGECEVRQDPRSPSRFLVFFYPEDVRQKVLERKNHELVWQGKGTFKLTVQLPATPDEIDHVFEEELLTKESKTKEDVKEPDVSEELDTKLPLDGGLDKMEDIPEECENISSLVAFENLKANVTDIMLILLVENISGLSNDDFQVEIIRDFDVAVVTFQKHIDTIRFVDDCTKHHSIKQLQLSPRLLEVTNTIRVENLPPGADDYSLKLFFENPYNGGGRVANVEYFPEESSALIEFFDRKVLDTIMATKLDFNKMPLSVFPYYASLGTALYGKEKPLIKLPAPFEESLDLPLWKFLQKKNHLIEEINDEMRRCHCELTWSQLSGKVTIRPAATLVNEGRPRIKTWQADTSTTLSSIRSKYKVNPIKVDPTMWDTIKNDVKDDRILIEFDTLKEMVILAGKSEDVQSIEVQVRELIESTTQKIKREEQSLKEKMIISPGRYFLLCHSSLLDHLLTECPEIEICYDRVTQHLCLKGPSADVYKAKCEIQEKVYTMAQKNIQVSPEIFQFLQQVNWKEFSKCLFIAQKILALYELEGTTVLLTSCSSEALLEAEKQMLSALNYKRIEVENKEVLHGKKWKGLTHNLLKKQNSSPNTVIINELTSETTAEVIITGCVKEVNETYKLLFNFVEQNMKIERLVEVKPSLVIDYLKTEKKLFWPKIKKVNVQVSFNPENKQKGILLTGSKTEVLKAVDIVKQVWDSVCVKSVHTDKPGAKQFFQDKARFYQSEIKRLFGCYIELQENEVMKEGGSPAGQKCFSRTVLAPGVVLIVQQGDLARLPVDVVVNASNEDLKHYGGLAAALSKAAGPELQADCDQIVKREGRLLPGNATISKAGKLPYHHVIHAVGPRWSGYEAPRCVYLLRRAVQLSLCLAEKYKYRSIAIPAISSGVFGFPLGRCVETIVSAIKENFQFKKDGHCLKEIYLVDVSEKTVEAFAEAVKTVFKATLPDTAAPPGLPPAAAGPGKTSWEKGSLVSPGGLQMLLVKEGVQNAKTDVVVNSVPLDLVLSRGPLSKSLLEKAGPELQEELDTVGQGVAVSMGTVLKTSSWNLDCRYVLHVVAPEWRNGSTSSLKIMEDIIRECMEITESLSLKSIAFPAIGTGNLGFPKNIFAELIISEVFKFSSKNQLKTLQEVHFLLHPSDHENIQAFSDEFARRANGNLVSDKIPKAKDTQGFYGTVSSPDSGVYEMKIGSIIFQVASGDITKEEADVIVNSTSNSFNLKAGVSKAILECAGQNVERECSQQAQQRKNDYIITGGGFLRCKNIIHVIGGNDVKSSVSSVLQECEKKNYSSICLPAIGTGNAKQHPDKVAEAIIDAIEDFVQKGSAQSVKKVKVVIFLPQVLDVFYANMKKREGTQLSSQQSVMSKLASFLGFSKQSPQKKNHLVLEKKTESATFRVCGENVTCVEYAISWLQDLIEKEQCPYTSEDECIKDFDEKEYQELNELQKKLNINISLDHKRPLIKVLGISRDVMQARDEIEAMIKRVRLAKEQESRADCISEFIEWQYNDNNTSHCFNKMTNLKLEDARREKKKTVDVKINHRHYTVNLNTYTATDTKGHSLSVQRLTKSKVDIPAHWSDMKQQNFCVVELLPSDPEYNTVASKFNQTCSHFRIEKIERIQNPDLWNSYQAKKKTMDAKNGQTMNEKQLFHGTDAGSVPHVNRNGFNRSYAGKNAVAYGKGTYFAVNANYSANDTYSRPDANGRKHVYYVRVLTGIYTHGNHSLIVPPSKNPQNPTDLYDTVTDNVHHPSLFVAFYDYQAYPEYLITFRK
Procedure: KYSE270 cells were seeded at a density of […] in 6-well plates and incubated overnight. Once attached, cells were treated with the compounds of Examples 1-4 at increasing concentrations (0.001 μM, 0.01 μM, 0.1 μM, 1 μM, and 10 μM; 0.003 μM, 0.03 μM, 0.3 μM, and 3 μM were also evaluated for the compound of Example 1), or with DMSO for 24 h. Media was gently aspirated and cells washed 3 times with 2 mL of ice cold PBS while on ice. The PBS was completely aspirated and 75 μl freshly prepared lysis buffer (Thermo Fisher 78501) was added to cells before scraping into the buffer. Lysates were collected in microcentrifuge tubes and incubated on ice for 15 minutes. Lysates were centrifuged at 10,000 rpm for 15 min at 4° C. and supernatants collected into fresh microcentrifuge tubes. Protein concentration was measured using a reducing agent compatible with the Pierce BCA Protein Assay Kit (Thermo Fisher 23250). Samples were prepared in loading buffer (LI-COR 928-40004) containing 5% β-mercaptoethanol, and incubated at 95° C. for 5 min. Protein lysates were resolved on 4-12% Tris-Acetate gels in MOPS running buffer with 60 μg of protein per well. Western blot transfers were done with PVDF membranes (LI-COR Immobilon) with 20 volts for 14 minutes. Primary antibodies (PARP14: in house generated mouse antibody (15A6 LotIC), β-actin: D6A8 (8457)) were incubated at 1:1,000 dilution using the odyssey blocking buffer (LI-COR 927-50000) for 2 h at room temperature and detected with secondary antibody (LI-COR 926-68072, 926-32211). Mouse antibody 15A6 Lot1C was generated by immunizing with recombinant human PARP14 catalytic domain protein. After hybridoma fusion, the parental clones were screened for reactivity against PARP14 catalytic domain, which were then subcloned to generate monoclones including 15A6-1. Monoclonal supernatants were tested by Western blotting against THP-1 and THP-1 PARP14 KO cells to confirm reactivity. The PARP14 antibody was produced by culturing the 15A6-1 hybridoma monoclone in 1L of serum free media+2% low IgG FBS. […]

[3] = test system: IL-10 production; test: Reduction of IL-10 production in IL-4 stimulated M2-like macrophages (ELISA); type: cell-based; settings: IL-4 stimulated M2-like macrophages from human monocytes; 1, 0.1 or 0.01 μM
Procedure: Monocytes were isolated from peripheral human blood and cultured in the presence of M-CSF and the compound of Example 1 (at 1, 0.1 or 0.01 μM) for 72 h. M-CSF differentiates monocytes into M-0 macrophages. Subsequently medium was replaced with fresh medium containing IL-4 and the compound of Example 1 (at 1, 0.1 or 0.01 μM), and cells were incubated for another 48 h. Isolation of primary human monocytes from whole blood: Primary monocytes were isolated from whole blood (iSPECIMEN; 500 mL) collected from healthy donors. Blood was diluted at a 1:1 ratio with EasySep buffer (STEMCELL Technologies 20144) and layered onto lymphoprep (STEMCELL Technologies 07811) in SepMate tubes (STEMCELL Technologies 85450) for PBMC isolation according to the manufacturer's instructions. […] Cells were treated with the compound of Example 1 or DMSO on day 6 after seeding at 1 μmol/L, 0.1 μmol/L, and 0.01 μmol/L. IL-10 determination: Levels of IL-10 in the supernatants of human primary M2 macrophages were determined with the IL-10 ELISA kit (STEMCELL Technologies 02013) according to the manufacturer's instructions. Briefly, supernatants were collected at the indicated time point and depleted of any floating cells before being stored at −80° C. until ready to use. IL-10 concentrations were determined from the kit's IL-10 standard curve and normalized to total cell protein.

Compound | IC50 [1] [nM] | hook effect at higher concentrations (PARP14 degradation) [2] | IL-10 production (IL-10 levels in tissue culture supernatant, ELISA) [3]
O=c1[nH]c(CSC2CCNCC2)nc2cc(NC3CCCC3)cc(F)c12 | < 1000 |  | 
O=c1[nH]c(CS[C@H]2CC[C@H](O)CC2)nc2cc(OCC3CCOCC3)cc(F)c12 | < 1000 |  | 
O=c1[nH]c(CS[C@H]2CC[C@@H](O)CC2)nc2cc(OCC3CCOCC3)cc(F)c12 | < 1000 |  | 
O=C(CN1CCC(SCc2nc3cc(NC4CCCC4)cc(F)c3c(=O)[nH]2)CC1)NCCCCCCNc1cccc2c1C(=O)N(C1CCC(=O)NC1=O)C2=O.O=C(O)C(F)(F)F (centres unmarked) [Example 1, 2-(4-(((7-(Cyclopentylamino)-5-fluoro-4-oxo-3,4-dihydroquinazolin-2-yl)methyl)thio)piperidin-1-yl)-N-(6-((2-(2,6-dioxopiperidin-3-yl)-1,3-dioxoisoindolin-4-yl)amino)hexyl)acetamide trifluoroacetate] |  | amelioration of efficacy | decreased IL-10 production
O=C1CCC(N2C(=O)c3cccc(NCCC(=O)N[C@H]4CC[C@H](SCc5nc6cc(OCC7CCOCC7)cc(F)c6c(=O)[nH]5)CC4)c3C2=O)C(=O)N1 (some centres unmarked) [Example 4, 3-((2-(2,6-dioxopiperidin-3-yl)-1,3-dioxoisoindolin-4-yl)amino)-N-((1r,4r)-4-(((5-fluoro-4-oxo-7-((tetrahydro-2H-pyran-4-yl)methoxy)-3,4-dihydroquinazolin-2-yl)methyl)thio)cyclohexyl)propanamide] |  | amelioration of efficacy | 

Further lines, with some results ahead:

IC50 [1] [nM] | hook effect at higher concentrations (PARP14 degradation) [2] | Compound | IL-10 production (IL-10 levels in tissue culture supernatant, ELISA) [3]
< 1000 |  | O=c1[nH]c(CSC2CCC(O)CC2)nc2cc(OCC3CCCOC3)cc(F)c12 (centres unmarked) | 
 | amelioration of efficacy | O=C1CCC(N2C(=O)c3cccc(NCCCCCCCC(=O)N[C@H]4CC[C@H](SCc5nc6cc(OCC7CCOCC7)cc(F)c6c(=O)[nH]5)CC4)c3C2=O)C(=O)N1 (some centres unmarked) [Example 3, 8-((2-(2,6-dioxopiperidin-3-yl)-1,3-dioxoisoindolin-4-yl)amino)-N-((1r,4r)-4-(((5-fluoro-4-oxo-7-((tetrahydro-2H-pyran-4-yl)methoxy)-3,4-dihydroquinazolin-2-yl)methyl)thio)cyclohexyl)octanamide] | 

From US20260125362A1, “TARGETED PROTEIN DEGRADATION OF PARP14 FOR USE IN THERAPY” (AbbVie Biotechnology Ltd, priority 2019, published 2026)
